Results as given in patent US11400106B2, “Methods for inhibiting microbe growth” (priority 2018, dated 2022).
Where two headings read alike, the source gives them in different places. Where a SMILES comes first, the peptide text is derived from it.

Tests used:
S. aureus = assay: microbe, parasite or virus in culture; conditions: for MIC: Staphylococcus aureus, read-out: MIC, S. aureus, MHB−; for Fold, S. aureus: fold shift in MIC
Protocol: (§1) In the following experiments, bacterial cells were cultured in 96-well microtiter plates in cation-adjusted Mueller-Hinton Broth (MHB) for 18 h at 37° C. The main strains used were E. coli (K-12 BW25113) (placed in stationary incubator) and S. aureus (Newman Strain) (incubated at 250 r.p.m). Knockout strains (ΔtolcC and ΔychM) were used from the Keio knockout collection (Baba et al., Construction of Escherichia coli K-12 in-frame, single-gene knockout mutants: the Keio collection. Mol Syst Biol 2, 2006 0008, doi:10.1038/msb4100050 (2006)). For MIC determination and checkerboard analyses, Clinical & Laboratory Standards Institute (CLSI) protocol was used. […] DiSC3 loading of S. aureus cells was performed as previously described (Farha et al., Collapsing the proton motive force to identify synergistic combinations against Staphylococcus aureus. Chemistry & biology 20, 1168-1178, doi:10.1016/j.chembiol.2013.07.006 (2013)). CCCP concentration of 20 μM was used. pH adjustments were made by addition of HCl or NaOH. INT assay and ATP bioluminescence assays were performed as previously described (Farha et al., Collapsing the proton motive force to identify synergistic combinations against Staphylococcus aureus. Chemistry & biology 20, 1168-1178, doi:10.1016/j.chembiol.2013.07.006 (2013)). For chemical-genomic studies, the Keio library was grown overnight in cation-adjusted MHB broth, in 384-well plates. From these, treatment plates (25 mM sodium bicarbonate, or a sterile water control) were inoculated and grown for 15 hours at 37° C., in a stationary incubator. Data was normalized according to Mangat et al (Mangat et al., Rank ordering plate data facilitates data visualization and normalization in high-throughput screening. J Biomol Screen 19, 1314-1320, doi:10.1177/1087057114534298 (2014)), with gene products and GO terms mined from EcoCyc. The GFP promoter library (Keseler et al., EcoCyc: fusing model organism databases with systems biology. Nucleic Acids Res 41, D605-612, doi:10.1093/nar/gks1027 (2013)) was grown for 18 hours at ambient temperature with the same inoculation strategy as with the Keio collection. The analysis pipeline of Zaslaver et al (Zaslaver et al., A comprehensive library of fluorescent transcriptional reporters for Escherichia coli. Nat Methods 3, 623-628, doi:10.1038/nmeth895 (2006)) was used to generate maps of promoter activity, from which lists of promoters with increased or decreased activity were compiled.
(§2) Fold enhancement in MICs in the media supplemented with sodium bicarbonate is represented by a positive fold, whereas suppression of activity is represented by a negative fold.
(§3) The effect of sodium bicarbonate on the activity of additional antibacterial agents was investigated. Clinical isolates of various bacteria were obtained from the ATCC and the IHMA.
(§4) The effect of sodium bicarbonate on the activity of cationic antiseptic agents was investigated. Clinical isolates of various bacteria were obtained from the ATCC and the IHMA.

E. coli = assay: microbe, parasite or virus in culture; type: cell-based, Escherichia coli; conditions: for MIC: Escherichia coli, 18 h, read-out: MIC, E. coli, MHB−; for Fold, E. coli: fold shift in MIC
Protocol: as §1, §2, §3, §4

[1] = antibiotic agents, MHB in the absence of sodium bicarbonate
[2] = antiseptic agents, MHB in the absence of sodium bicarbonate
[3] = antiseptic agents, MHB in the presence of 25 mM sodium bicarbonate
[4] = MHB in the absence of sodium bicarbonate
[5] = antibiotic agents, MHB in the presence of 25 mM sodium bicarbonate
[6] = antibiotic agents, MHB− vs MHB+

Molecule	MIC, S. aureus, MHB+ (S. aureus)	MIC (S. aureus; 18 h)	MIC, E. coli, MHB+ (E. coli)	MIC (E. coli; [1])	other results
C/C(=C\C(=O)OCCCCCCCCC(=O)O)C[C@@H]1OC[C@H](C[C@@H]2O[C@H]2[C@@H](C)[C@H](C)O)[C@@H](O)[C@H]1O [Mupirocin]	2 μg of antimicrobial agent/mL of buffer	0.5 µg/mL	128 μg of antimicrobial agent/mL of buffer	128 µg/mL	
CC1(C)S[C@@H]2[C@H](NC(=O)[C@H](C(=O)O)c3ccsc3)C(=O)N2[C@H]1C(=O)O [Ticarcillin]	32 μg of antimicrobial agent/mL of buffer	8 µg/mL	64 μg of antimicrobial agent/mL of buffer	32 µg/mL	
COc1c(N2CCNC(C)C2)c(F)cc2c(=O)c(C(=O)O)cn(C3CC3)c12 (stereo not drawn) [Gatifloxacin]	8 μg of antimicrobial agent/mL of buffer	4 µg/mL	4 μg of antimicrobial agent/mL of buffer	16 µg/mL	
N=C(N)c1ccc(OCCCOc2ccc(C(=N)N)cc2Br)c(Br)c1.O=S(=O)(O)CCO.O=S(=O)(O)CCO [Dibrompropamidine diisetionate]					MIC, S. aureus, MHB (S. aureus; [2]): 4 μg of antimicrobial agent/mL of buffer; MIC, S. aureus, MHB+ (S. aureus; [3]): 1 μg of antimicrobial agent/mL of buffer; Fold, S. aureus (S. aureus; antiseptic agents): 4; MIC, E. coli, MHB (E. coli; [2]): 64 μg of antimicrobial agent/mL of buffer; MIC, E. coli, MHB+ (E. coli; [3]): 16 μg of antimicrobial agent/mL of buffer; Fold, E. coli (E. coli; antiseptic agents): 4
N[C@@H]1CCCCN(c2c(F)cc3c(=O)c(C(=O)O)cn(C4CC4)c3c2Cl)C1 [Besifloxacin]	0.25	0.125 µg/mL			effect of 25 mM sodium bicarbonate on antibacterial activity (E. coli): increased; MIC (E. coli; [4]): 0.25 µg/mL
CCCCCCCCCCCCCCCC[N+](C)(C)C.[Br-] [Cetrimodium bromide]					MIC, S. aureus, MHB (S. aureus; [2]): 16 μg of antimicrobial agent/mL of buffer; MIC, S. aureus, MHB+ (S. aureus; [3]): 4 μg of antimicrobial agent/mL of buffer; Fold, S. aureus (S. aureus; antiseptic agents): 4; MIC, E. coli, MHB (E. coli; [2]): >128 μg of antimicrobial agent/mL of buffer; MIC, E. coli, MHB+ (E. coli; [3]): 32 μg of antimicrobial agent/mL of buffer; Fold, E. coli (E. coli; antiseptic agents): 4
CCn1cc(C(=O)O)c(=O)c2cc(F)c(N3CCNC(C)C3)c(F)c21 (stereo not drawn) [Lomefloxacin]	8 μg of antimicrobial agent/mL of buffer	4 µg/mL	0.125 μg of antimicrobial agent/mL of buffer	0.5 µg/mL	
CC[C@H](C)[C@@H]1NC(=O)[C@H](CCCNC(=N)N)NC(=O)[C@@H](NC(=O)[C@H](CC(C)C)NC(=O)[C@@H](N)CCCNC(=N)N)CSSC[C@@H](C(=O)N[C@@H](CCCNC(=N)N)C(=O)O)NC(=O)[C@H](C(C)C)NC(=O)[C@H](CCCNC(=N)N)NC(=O)[C@H]([C@@H](C)CC)NC(=O)[C@H](C(C)C)NC(=O)[C@H](C(C)C)NC1=O [Bactenesin] (HELM PEPTIDE1{R.L.C.R.I.V.V.I.R.V.C.R}$PEPTIDE1,PEPTIDE1,3:R3-11:R3$$$V2.0; N-terminus and C-terminus assumed; bridges inferred)					MIC in MHB (S. aureus; Newman, 18 h): 128 µg/mL; MIC in MHB + 25 mM bicarbonate (S. aureus; Newman, 18 h): 0.5 µg/mL; enhancement of antimicrobial activity in the presence of bicarbonate (E. coli): 256 fold
NC[C@H]1O[C@H](O[C@H]2[C@H](O)[C@@H](O[C@H]3O[C@H](CO)[C@@H](O)[C@H](N)[C@H]3O)[C@H](N)C[C@@H]2N)[C@H](O)[C@@H](O)[C@@H]1O [Kanamycin]	4	8 µg/mL			MIC (E. coli; [4]): 4 µg/mL
Gramicidin					MIC, S. aureus, MHB− (S. aureus; [1]): 1 μg of antimicrobial agent/mL of buffer; MIC, S. aureus, MHB+ (S. aureus; [5]): 0.25 μg of antimicrobial agent/mL of buffer; Fold, S. aureus (S. aureus; [6]): 4; MIC, E. coli, MHB− (E. coli; [1]): >128 μg of antimicrobial agent/mL of buffer; MIC, E. coli, MHB+ (E. coli; [5]): >128 μg of antimicrobial agent/mL of buffer; Fold, E. coli (E. coli; [6]): 1
CC1(C)S[C@@H]2[C@H](NC(=O)[C@H](N)c3ccc(O)cc3)C(=O)N2[C@H]1C(=O)O [Amoxicillin]	1	0.25 µg/mL			MIC (E. coli): 8 µg/mL
CCOc1ccc2ccccc2c1C(=O)N[C@@H]1C(=O)N2[C@@H]1SC(C)(C)[C@@H]2C(=O)O [Nafcillin]	1 μg of antimicrobial agent/mL of buffer	0.25 µg/mL	32 μg of antimicrobial agent/mL of buffer	16 µg/mL	
